# Target: T1, Axl (Homo sapiens, UniProt P30530)
# T1 construct: endogenous in cells; host or cells: HeLa cells
# T1 sequence (P30530 26-894): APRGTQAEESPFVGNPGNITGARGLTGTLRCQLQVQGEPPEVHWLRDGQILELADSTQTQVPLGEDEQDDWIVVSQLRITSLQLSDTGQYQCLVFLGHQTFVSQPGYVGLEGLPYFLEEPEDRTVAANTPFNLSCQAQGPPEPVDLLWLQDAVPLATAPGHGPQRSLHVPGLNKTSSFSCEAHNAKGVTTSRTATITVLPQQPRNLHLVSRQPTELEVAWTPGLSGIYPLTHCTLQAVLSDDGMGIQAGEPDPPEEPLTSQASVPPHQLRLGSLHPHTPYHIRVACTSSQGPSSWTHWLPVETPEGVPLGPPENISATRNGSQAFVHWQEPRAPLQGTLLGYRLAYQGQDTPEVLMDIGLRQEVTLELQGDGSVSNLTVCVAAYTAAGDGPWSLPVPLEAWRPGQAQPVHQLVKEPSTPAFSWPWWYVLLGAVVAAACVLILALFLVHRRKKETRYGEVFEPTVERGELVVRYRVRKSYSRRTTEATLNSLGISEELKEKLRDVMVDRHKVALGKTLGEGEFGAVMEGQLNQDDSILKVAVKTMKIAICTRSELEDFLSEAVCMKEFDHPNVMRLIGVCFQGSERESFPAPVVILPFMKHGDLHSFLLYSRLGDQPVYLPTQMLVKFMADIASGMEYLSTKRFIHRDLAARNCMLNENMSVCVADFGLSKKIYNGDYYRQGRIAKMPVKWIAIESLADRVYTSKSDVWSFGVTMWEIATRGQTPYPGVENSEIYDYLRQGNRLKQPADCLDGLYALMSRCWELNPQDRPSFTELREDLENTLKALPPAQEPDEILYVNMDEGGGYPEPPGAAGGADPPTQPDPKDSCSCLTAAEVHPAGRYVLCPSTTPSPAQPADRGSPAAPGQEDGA
# Test: Phospho-Akt in-cell Western assay
# Type: cell-based
# Conditions: Hela cells, stimulated by Axl-antibody cross-linking, phospho-Akt chemiluminescence; Table 1, formula (Ia)
# How it was run: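 HeLa cells on poly-L-lysine, starved 24 h in 0.5% FCS with 500 ng/mL Axl/Fc, pre-treated with compound 1 hr at 37° C, then stimulated 5 min by cross-linked anti-Axl antibody clusters. Fixed cells probed for phospho-Akt by in-cell Western with HRP chemiluminescence, read within 10 min.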
row,Compound,IC50 [nM]
1,"CC(C)(C)OC(=O)N[C@H]1CCc2ccc(Nc3nc(N)n(-c4cc5c(nn4)-c4ccccc4CCC5)n3)cc2CC1 [Compound 13, 1-(6,7-dihydro-5H-benzo[6,7]cyclohepta[1,2-c]pyridazin-3-yl)-N^3-((7S)-7-(t-butoxycarbonylamino)-6,7,8,9-tetrahydro-5H-benzo[7]annulene-2-yl)-1H-1,2,4-triazole-3,5-diamine]",> 20000
2,"Nc1nc(Nc2ccc3c(c2)CCC(N2CCC[C@@H]2C(=O)O)CC3)nn1-c1cc2c(nn1)-c1ccccc1CCC2 (stereo partly drawn) [Compound 5, 1-(6,7-dihydro-5H-benzo[6,7]cyclohepta[1,2-c]pyridazin-3-yl)-N^3-(7-((2R)-2-(carboxy)pyrrolidin-1-yl)-6,7,8,9-tetrahydro-5H-benzo[7]annulene-2-yl)-1H-1,2,4-triazole-3,5-diamine]",< 1000

# The remaining lines, values ahead:
row,IC50 [nM],Compound
1,< 1000,"CCN(CC)[C@H]1CCc2ccc(Nc3nc(N)n(-c4cc5c(nn4)-c4cccnc4CCC5)n3)cc2CC1 [Compound 48, 1-(6,7-dihydro-5H-pyrido[2′,3′:6,7]cyclohepta[1,2-c]pyridazin-3-yl)-N^3-((7S)-7-(diethylamino)-6,7,8,9-tetrahydro-5H-benzo[7]annulene-2-yl)-1H-1,2,4-triazole-3,5-diamine]"
2,< 1000,"CC(C)CCN[C@H]1CCc2ccc(Nc3nc(N)n(-c4cc5c(nn4)-c4ccccc4CCC5)n3)cc2CC1 [Compound 39, 1-(6,7-dihydro-5H-benzo[6,7]cyclohepta[1,2-c]pyridazin-3-yl)-N^3-((7S)-7-(3-methylbutylamino)-6,7,8,9-tetrahydro-5H-benzo[7]annulene-2-yl)-1H-1,2,4-triazole-3,5-diamine]"
3,< 1000,"CC(C)CN[C@H]1CCc2ccc(Nc3nc(N)n(-c4cc5c(nn4)-c4ccccc4CCC5)n3)cc2CC1 [Compound 17, 1-(6,7-dihydro-5H-benzo[6,7]cyclohepta[1,2-c]pyridazin-3-yl)-N^3-((7S)-7-((2-methylpropyl)amino)-6,7,8,9-tetrahydro-5H-benzo[7]annulene-2-yl)-1H-1,2,4-triazole-3,5-diamine]"
4,10000 to 20000,"Nc1nc(Nc2ccc3c(c2)CC[C@@H](N(CC2CCCCC2)CC2CCCCC2)CC3)nn1-c1cc2c(nn1)-c1ccccc1CCC2 [Compound 27, 1-(6,7-dihydro-5H-benzo[6,7]cyclohepta[1,2-c]pyridazin-3-yl)-N^3-((7S)-7-(di(cyclohexylmethyl)amino)-6,7,8,9-tetrahydro-5H-benzo[7]annulene-2-yl)-1H-1,2,4-triazole-3,5-diamine]"

# Same assay, conditions: Hela cells, stimulated by Axl-antibody cross-linking, phospho-Akt chemiluminescence; Table 2, formula (Ib)
row,IC50 [nM],Compound
1,< 1000,"Nc1nc(Nc2cccc3c2CCC(N2CCCC2)CC3)n(-c2cc3c(nn2)-c2ccccc2CCC3)n1 (stereo not shown) [Compound 12, 1-(6,7-dihydro-5H-benzo[6,7]cyclohepta[1,2-c]pyridazin-3-yl)-N^5-(7-(pyrrolidin-1-yl)-6,7,8,9-tetrahydro-5H-benzo[7]annulene-1-yl)-1H-1,2,4-triazole-3,5-diamine]"

# Source: US9173882B2, “Polycyclic heteroaryl substituted triazoles useful as Axl inhibitors” (Rigel Pharmaceuticals, Inc., priority 2008, dated 2015)
